# In US20150209354A1, “CASEIN KINASE 1 INHIBITORS FOR THE TREATMENT OF B-CELL CHRONIC LYMPHOCYTIC|LEUKEMIA” (MASARYKOVA UNIVERZITA, priority 2012, published 2015):
# “Also recorded” adds a separate entry of the source.
# Tests used:
# primary CLL cells [1] = test: Migration of pre-treated primary CLL cells into tissues of transplanted NSG mice (FACS of calcein-positive cells); assay type: in vivo; details: cells pre-treated 20 hours with 100 μM D4476; intraperitoneal injection; tissues analysed after 24 hours; vs DMSO
# Protocol: (§1) FIG. 3: CK1 controls the migration of CLL cells in vivo. (A) Layout of the experiment: CLL cells were obtained by purification from the samples of fresh blood from patients, stimulated and stained in vitro using green calcein. They were subsequently intraperitoneally injected to NSG mice. After 24 hours the murine tissues were examined for the presence of calcein-positive CLL cells using flow-cytometry (refer to the G1 cut-out in the typical dot plot distribution). (B) The rate of apoptosis in primary CLL cells after adding DMSO/D4476 (CK1 inh. I) was determined by the analysis of membrane potential of mitochondria using flow-cytometry while using tetramethylrhodamine ethyl ester (TMRE) stained with green calcein dye. […] The charts show the ratio of the CLL cells (the quantity of positive cells/total quantity of cells in the organ) treated by DMSO or D4476 (CK1 inh. I) that were obtained from the spleen (Ci), liver (Cii), and bone marrow (Ciii) of transplanted mice. […]
# (§2) Freshly isolated human CLL lymphocytes (25×10^6 from the patient) were pre-treated for 20 hours with a CK1 inhibitor (100 μM, D4476, Calbiochem), and dimethylsulfoxide (DMSO, Sigma-Aldrich) as control. […] Samples of spleen, liver, and femoral bone marrow of mice were taken 24 hours after the injection and analyzed. Migration of calcein-positive CLL cells to these tissues was determined by FACS analysis (FACScalibur).
# MEC1 cells [2] = test: Transwell migration of MEC1 cells to chemokines CCL19 and CCL21; assay type: cell-based, human; details: D4476 100 μM overnight; CCL19 and CCL21 200 ng/ml; vs DMSO control
# Protocol: FIG. 1: Migration of MEC1 cells which represents an in-vitro CLL model was investigated in the presence of chemokines CCL19 and CCL21 (200 ng/ml) using Transwell migration chamber. The rate of migration is expressed as a migration index. The MEC1 migration triggered by the chemokines CCL21 and CCL19 is blocked by CK1 inhibitors—D4476 (CK1 inh. I; 100 μM) and PF670462 (CK1 inh. II; 50 μM). The values in the FIGS. 1A and 1B represent the average and the standard error. Statistical significance was tested using One-way ANOVA and Tukey post-hoc test (*p<0.05, **p<0.01, ***p<0.001).
# In this example, the MEC1 cell line was used, which is a well-defined cell line obtained from a CLL patient in a pro-lymphocytic transformation. The MEC1 line is used as a transplantation model of CLL. […]
# (§3) Into the upper insert of HTS Transwell® 96-well plates (Corning Incorporated, Mexico) with polycarbonate membranes with the pore size of 5.0 μm, 0.5×10^6 MEC1 cells were seeded. […] The migration to chemokine was then analyzed using the Coulter Counter instrument (model FN, Coulter Electronics, Fla., USA). The migration index was calculated as the number of cells (treated or non-treated) migrating to the chemokine divided by the number of cells migrating only to the control medium.
# MEC1 cells [3] = test: Chemokine-controlled transendothelial invasion of MEC1 cells through HUVEC layer (Transwell); assay type: cell-based, human; details: D4476 100 μM overnight, HUVEC-covered Transwell
# Protocol: FIG. 2: Transendothelial invasiveness of the MEC1 cells was tested in the Transwell migration chamber in an arrangement where the upper chamber was covered with one layer of HUVEC endothelial cells. The rate of invasiveness (determined as the migration index) of the MEC1 cells was analyzed in the presence of the chemokine CCL19, Wnt5a, or in combination of both substances. The positive effect of CCL19 to the transendothelial migration of MEC1 was inhibited by addition of D4476 (CK1 inh. I). Statistical significance was tested using One-way ANOVA test and Tukey post-hoc test (***p<0.001). Each experiment was independently repeated three-times.
# In the complex environment of the human body, cells react to the attractants and have to pass through extra-cellular matrix or endothelial barrier, which is a process known as invasion. […]
# as §3, with “μm, covered with HUVEC (human umbilical vein endothelial cells monolayer),” for “μm,”
# primary CLL cells [4] = test: Rate of apoptosis of primary CLL cells by mitochondrial membrane potential (TMRE/calcein flow cytometry); assay type: cell-based, human; details: 100 μM D4476, 20 hours pre-treatment; TMRE and calcein staining; vs DMSO
# Protocol: as §1
# as §2, with “(FACScalibur). […]” for “(FACScalibur).”
smiles,measurement,setting,value
NC(=O)c1ccc(-c2nc(-c3ccc4c(c3)OCCO4)c(-c3ccccn3)[nH]2)cc1 [D4476],"migration of CLL cells to the spleen, liver and bone marrow",primary CLL cells [1],reduced
same,MEC1 migration (migration index) triggered by the chemokines CCL21 and CCL19,MEC1 cells [2],blocked
same,"CCL19-induced transendothelial migration (invasiveness, migration index) of MEC1 cells",MEC1 cells [3],inhibited
same,rate of apoptosis in primary CLL cells,primary CLL cells [4],does not alter the rate of apoptosis; also recorded: without an increase of cell apoptosis being detected
